Test results published in EP1247803A2, “Indolinone compounds suitable for modulation of protein kinases” (Sugen, Inc., priority 1996, dated 1998).

What was measured:
[1] = target: PDGF-R (Homo sapiens, UniProt P09619); experiment: PDGF-R ELISA; format: cell-based
Excerpt: A PDGF-R ELISA is described in International Patent Publication No. WO 96/40116, published December 19, 1996 by Tang et al.

[2] = target: T1, EGFR (Homo sapiens, UniProt P00533); experiment: EGFR ELISA assay (in vitro kinase activity, EGFR captured from A431 cell lysate); format: biochemical; parameters: concentration or dose not given beside the values
T1 construct: Add 7 ug A431 cell lysate per well (EGFR source); endogenous in cells; host or cells: A431
T1 sequence (P00533 25-1210): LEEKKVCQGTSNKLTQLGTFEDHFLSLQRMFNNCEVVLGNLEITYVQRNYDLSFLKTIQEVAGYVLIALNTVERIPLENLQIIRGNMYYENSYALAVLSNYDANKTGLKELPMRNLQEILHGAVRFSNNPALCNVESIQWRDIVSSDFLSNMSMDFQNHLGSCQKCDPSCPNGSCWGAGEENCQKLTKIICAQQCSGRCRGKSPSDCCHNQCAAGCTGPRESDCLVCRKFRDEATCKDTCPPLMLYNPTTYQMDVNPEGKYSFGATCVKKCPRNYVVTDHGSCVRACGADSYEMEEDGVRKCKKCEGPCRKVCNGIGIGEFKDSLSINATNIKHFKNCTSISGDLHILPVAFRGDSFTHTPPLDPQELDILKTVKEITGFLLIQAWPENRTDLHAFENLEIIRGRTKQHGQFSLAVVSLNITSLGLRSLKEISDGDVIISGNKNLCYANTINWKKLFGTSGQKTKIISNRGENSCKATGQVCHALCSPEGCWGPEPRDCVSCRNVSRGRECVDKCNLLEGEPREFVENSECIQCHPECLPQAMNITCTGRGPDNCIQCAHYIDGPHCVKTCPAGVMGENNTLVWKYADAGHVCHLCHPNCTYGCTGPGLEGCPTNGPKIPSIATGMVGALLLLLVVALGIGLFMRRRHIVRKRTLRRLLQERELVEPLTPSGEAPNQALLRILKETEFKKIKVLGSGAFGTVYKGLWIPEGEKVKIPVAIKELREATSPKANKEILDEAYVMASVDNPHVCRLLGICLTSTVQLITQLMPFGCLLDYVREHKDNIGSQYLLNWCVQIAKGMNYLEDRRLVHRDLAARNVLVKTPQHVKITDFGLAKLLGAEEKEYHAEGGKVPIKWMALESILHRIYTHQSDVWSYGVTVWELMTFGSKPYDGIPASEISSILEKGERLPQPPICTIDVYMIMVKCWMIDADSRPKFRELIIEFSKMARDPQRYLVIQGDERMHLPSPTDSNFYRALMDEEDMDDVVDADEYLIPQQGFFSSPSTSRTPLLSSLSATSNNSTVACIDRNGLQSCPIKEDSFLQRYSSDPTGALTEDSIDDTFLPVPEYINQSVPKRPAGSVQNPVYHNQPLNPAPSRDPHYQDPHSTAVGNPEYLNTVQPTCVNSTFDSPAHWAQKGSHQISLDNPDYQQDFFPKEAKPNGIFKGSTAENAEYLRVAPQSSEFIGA
Method in brief: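 EGFR from A431 lysate was captured on plates coated with anti-EGFR antibody. Compounds were added 30 min before a 5 min phosphorylation with 3 µM ATP/5 mM MnCl2, which was stopped with 20 mM EDTA. Phosphotyrosine was detected with rabbit anti-phosphotyrosine, then a peroxidase-conjugated secondary and ABTS/H2O2, read at 410 nm.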

Sequence of PDGF-R (P09619 33-1106, species assumed): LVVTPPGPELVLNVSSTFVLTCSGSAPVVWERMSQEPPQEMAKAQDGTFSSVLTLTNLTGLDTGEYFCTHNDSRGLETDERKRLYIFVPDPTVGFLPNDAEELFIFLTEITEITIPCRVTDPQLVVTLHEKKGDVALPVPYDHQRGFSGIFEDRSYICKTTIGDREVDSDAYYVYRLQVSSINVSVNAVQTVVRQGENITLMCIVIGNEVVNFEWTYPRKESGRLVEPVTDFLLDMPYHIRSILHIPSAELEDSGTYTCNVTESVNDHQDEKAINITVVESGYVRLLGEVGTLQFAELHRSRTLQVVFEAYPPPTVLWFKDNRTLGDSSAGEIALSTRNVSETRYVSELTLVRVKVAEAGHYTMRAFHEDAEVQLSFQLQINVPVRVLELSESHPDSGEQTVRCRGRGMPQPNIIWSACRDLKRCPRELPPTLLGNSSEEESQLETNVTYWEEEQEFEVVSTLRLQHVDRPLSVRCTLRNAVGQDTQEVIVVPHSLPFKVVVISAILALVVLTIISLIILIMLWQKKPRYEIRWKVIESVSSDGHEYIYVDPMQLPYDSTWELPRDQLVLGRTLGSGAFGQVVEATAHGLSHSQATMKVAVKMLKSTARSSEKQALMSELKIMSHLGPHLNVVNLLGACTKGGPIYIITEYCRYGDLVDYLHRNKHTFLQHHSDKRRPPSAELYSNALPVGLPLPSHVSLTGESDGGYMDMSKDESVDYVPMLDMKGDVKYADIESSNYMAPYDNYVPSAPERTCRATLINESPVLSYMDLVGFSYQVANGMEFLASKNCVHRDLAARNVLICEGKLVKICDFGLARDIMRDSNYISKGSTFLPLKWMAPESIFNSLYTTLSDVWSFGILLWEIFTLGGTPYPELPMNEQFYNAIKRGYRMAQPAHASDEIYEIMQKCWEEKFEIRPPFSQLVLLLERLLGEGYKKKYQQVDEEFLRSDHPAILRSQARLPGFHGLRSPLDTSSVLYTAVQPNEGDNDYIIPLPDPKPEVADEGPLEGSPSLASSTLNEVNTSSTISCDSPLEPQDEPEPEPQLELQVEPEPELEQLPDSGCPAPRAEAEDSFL

| SMILES | PDGF Kinase %Inhibition [1] | Biochem EGFR %Inhibition [2] |
| --- | --- | --- |
| O=C1Nc2ccc(I)cc2C1=Cc1cc(C(F)(F)F)ccc1F [10728/B08] | -6.6% | 34.7% |
| O=C1Nc2ccc(I)cc2C1=Cc1c(F)cccc1C(F)(F)F [10728/B09] | -0.4% | 31.7% |
| O=C(O)COc1ccccc1C=C1C(=O)Nc2ccc(I)cc21 [10728/B10] | 2.7% | 16.8% |
| COc1cc(C=C2C(=O)Nc3ccc(I)cc32)cc2c1OCO2 [10728/B11] | -12.4% | 48.2% |
| COc1ccc(OC)c(C=C2C(=O)Nc3ccc(Br)c(C)c32)c1 [10728/C02] | 42.3% | -35.4% |
| COc1cccc(OC)c1C=C1C(=O)Nc2ccc(Br)c(C)c21 [10728/C03] | 24.9% | 9.7% |
| COc1cc(C=C2C(=O)Nc3ccc(Br)c(C)c32)cc(OC)c1 [10728/C04] | 27.2% | 16.1% |
| COc1cc(N(C)C)ccc1C=C1C(=O)Nc2ccc(Br)c(C)c21 [10728/C05] | 23.2% | 16.1% |
| Cc1c(Br)ccc2c1C(=Cc1ccc3c(c1)Cc1ccccc1-3)C(=O)N2 [10728/C06] | 2.7% | 4.2% |
| Cc1c(Br)ccc2c1C(=Cc1cccc(C(F)(F)F)c1F)C(=O)N2 [10728/C07] | 8.9% | 8.3% |
| Cc1c(Br)ccc2c1C(=Cc1cc(C(F)(F)F)ccc1F)C(=O)N2 [10728/C08] | 9.4% | 17.5% |
| Cc1c(Br)ccc2c1C(=Cc1c(F)cccc1C(F)(F)F)C(=O)N2 [10728/C09] | 8.1% | -6.8% |
| Cc1c(Br)ccc2c1C(=Cc1ccccc1OCC(=O)O)C(=O)N2 [10728/C10] | 11.2% | 4.4% |
| COc1cc(C=C2C(=O)Nc3ccc(Br)c(C)c32)cc2c1OCO2 [10728/C11] | 8.5% | 21.8% |
| CNS(=O)(=O)c1ccc2c(c1)C(=Cc1cc(OC)ccc1OC)C(=O)N2 [10728/D02] | 9.8% | 9.9% |
| CNS(=O)(=O)c1ccc2c(c1)C(=Cc1c(OC)cccc1OC)C(=O)N2 [10728/D03] | 32.0% | 10.8% |
| CNS(=O)(=O)c1ccc2c(c1)C(=Cc1cc(OC)cc(OC)c1)C(=O)N2 [10728/D04] | 26.7% | -1.1% |
| CNS(=O)(=O)c1ccc2c(c1)C(=Cc1ccc(N(C)C)cc1OC)C(=O)N2 [10728/D05] | 7.2% | 12.7% |
| CNS(=O)(=O)c1ccc2c(c1)C(=Cc1ccc3c(c1)Cc1ccccc1-3)C(=O)N2 [10728/D06] | 5.8% | 5.8% |
